Patent publication US6737383B1, “Herbicidal oxadiazolidines” (priority 1999, dated 2004)

Columns and labels:
[1] = tested on: crabgrass; assay: Test B pre/postemergence crabgrass; assay type: in vivo, Digitaria sanguinalis
Summary of the method: (§1)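 Response is a visual 0-to-10 score relative to untreated plants, where 0 means no effect and 10 means complete control, taken twelve to sixteen days after application. Treatments went onto soil at planting and onto foliage of 1- to 4-leaf plants, using a surfactant-containing non-phytotoxic solvent.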

[2] = tested on: wild oat; assay: Test B pre/postemergence wild oat; assay type: in vivo, Avena fatua
Summary of the method: as §1

[3] = tested on: bedstraw; assay: Test B pre/postemergence bedstraw; assay type: in vivo, Galium aparine
Summary of the method: as §1

[4] = tested on: pigweed; assay: Test B pre/postemergence pigweed; assay type: in vivo, Amaranthus retroflexus
Summary of the method: as §1

[5] = tested on: giant foxtail; assay: Test B pre/postemergence giant foxtail; assay type: in vivo, Setaria faberii
Summary of the method: as §1

[6] = tested on: morningglory; assay: Test B pre/postemergence morningglory; assay type: in vivo, Ipomoea hederacea
Summary of the method: as §1

[7] = tested on: bamyardgrass; assay: Test B flood test barnyardgrass; assay type: in vivo, Echinochloa crus-galli
Summary of the method: (§2)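 Plants were grown to the 2-leaf stage before treatment with test chemical, then held in a greenhouse for twelve to sixteen days. Injury was visually rated against untreated controls on a 0–10 scale, where 0 is no effect and 10 is complete control.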

[8] = tested on: blackgrass; assay: Test B pre/postemergence blackgrass; assay type: in vivo, Alopecurus myosuroides
Summary of the method: as §1

[9] = tested on: velvetleaf; assay: Test B pre/postemergence velvetleaf; assay type: in vivo, Abutilon theophrasti
Summary of the method: as §1

[10] = tested on: rice; assay: Test B flood test rice; assay type: in vivo, Oryza sativa
Summary of the method: as §2

[11] = tested on: smallflower flatsedge; assay: Test B flood test smallflower flatsedge; assay type: in vivo, Cyperus difformis
Summary of the method: as §2

[12] = tested on: soybean; assay: Test B pre/postemergence soybean; assay type: in vivo, Glycine max
Summary of the method: as §1

[13] = tested on: cocklebur; assay: Test B pre/postemergence cocklebur; assay type: in vivo, Xanthium strumarium
Summary of the method: as §1

[14] = tested on: surinam grass; assay: Test B pre/postemergence surinam grass; assay type: in vivo, Brachiaria decumbens
Summary of the method: as §1

[15] = tested on: wheat; assay: Test B pre/postemergence wheat; assay type: in vivo, Triticum aestivum
Summary of the method: as §1

[16] = tested on: purple nutsedge; assay: Test B pre/postemergence purple nutsedge; assay type: in vivo, Cyperus rotundus
Summary of the method: as §1

[17] = Preemergence, Rate 62 g/ha, scale of 0 to 10 where 0 is no effect and 10 is complete control
[18] = Preemergence, Rate 125 g/ha, 0 is no effect, 10 is complete control
[19] = Preemergence, Rate 250 g/ha, scale 0 to 10, 0 is no effect, 10 is complete control
[20] = Preemergence, Rate 500 g/ha, scale of 0 to 10 where 0 is no effect and 10 is complete control
[21] = Rate 62 g/ha, Postemergence, scale of 0 to 10 where 0 is no effect and 10 is complete control
[22] = Rate 125 g/ha, Postemergence, scale 0 to 10
[23] = Rate 500 g/ha, Postemergence, scale 0 to 10
[24] = Rate 31 g/ha, Pre-emergence section (flood test species), scale 0 to 10
[25] = Rate 62 g/ha, headed Pre-emergence (flood test species), scale 0 to 10 (0 no effect, 10 complete control)
[26] = Rate 125 g/ha, Pre-emergence, flood test species, scale 0 to 10 where 0 is no effect and 10 is complete control
[27] = Rate 250 g/ha, Pre-emergence, flood-test species, scale 0 to 10, 0 is no effect, 10 is complete control
[28] = Rate 500 g/ha, headed Pre-emergence (flood test species), scale 0 to 10 (0 no effect, 10 complete control)

Cc1nc(C)c(-n2c(=O)on(C(=O)N(c3ccc(Cl)cc3)C(C)C)c2=O)s1 [Compound 196]
0: Crabgrass plant response rating [1, 17] | Crabgrass plant response rating (0 to 10 scale) [1, 18] | Crabgrass plant response rating [1, 19] | Plant response rating, Crabgrass [1, 20] | Crabgrass plant response rating [1, 21] | Crabgrass plant response rating [1, 22] | Plant response rating (0 to 10; 0 is no effect, 10 is complete control), Crabgrass ([1]; Rate 250 g/ha, Postemergence) | Crabgrass plant response rating [1, 23] | Wild oats plant response rating [2, 17] | Wild oats plant response rating [2, 19] | Plant response rating, Wild oats [2, 20] | Wild oats plant response rating [2, 21] | Wild oats plant response rating [2, 22] | Plant response rating (0 to 10; 0 is no effect, 10 is complete control), Wild oats ([2]; Rate 250 g/ha, Postemergence) | Bedstraw plant response rating [3, 17] | Bedstraw plant response rating (0 to 10 scale) [3, 18] | Bedstraw plant response rating [3, 19] | Plant response rating, Bedstraw [3, 20] | Bedstraw plant response rating [3, 21] | Bedstraw plant response rating [3, 22] | Plant response rating (0 to 10; 0 is no effect, 10 is complete control), Bedstraw ([3]; Rate 250 g/ha, Postemergence) | Bedstraw plant response rating [3, 23] | Redroot pigweed plant response rating [4, 17] | Redroot pigweed plant response rating (0 to 10 scale) [4, 18] | Redroot pigweed plant response rating [4, 19] | Plant response rating, Redroot pigweed [4, 20] | Redroot pigweed plant response rating [4, 21] | Redroot pigweed plant response rating [4, 22] | Plant response rating (0 to 10; 0 is no effect, 10 is complete control), Redroot pigweed ([4]; Rate 250 g/ha, Postemergence) | Redroot pigweed plant response rating [4, 23] | Giant foxtail plant response rating [5, 17] | Giant foxtail plant response rating (0 to 10 scale) [5, 18] | Giant foxtail plant response rating [5, 19] | Plant response rating, Giant foxtail [5, 20] | Giant foxtail plant response rating [5, 21] | Giant foxtail plant response rating [5, 22] | Plant response rating (0 to 10; 0 is no effect, 10 is complete control), Giant foxtail ([5]; Rate 250 g/ha, Postemergence) | Giant foxtail plant response rating [5, 23] | Morningglory plant response rating [6, 17] | Morningglory plant response rating (0 to 10 scale) [6, 18] | Morningglory plant response rating [6, 19] | Plant response rating, Morningglory [6, 20] | Morningglory plant response rating [6, 21] | Morningglory plant response rating [6, 22] | Plant response rating (0 to 10; 0 is no effect, 10 is complete control), Morningglory ([6]; Rate 250 g/ha, Postemergence) | Morningglory plant response rating [6, 23] | Barnyardgrass plant response rating [7, 24] | Barnyardgrass plant response rating [7, 25] | Barnyardgrass plant response rating [7, 26] | Barnyardgrass plant response rating [7, 27] | Plant response rating, Barnyardgrass [7, 28] | Blackgrass plant response rating [8, 17] | Blackgrass plant response rating (0 to 10 scale) [8, 18] | Blackgrass plant response rating [8, 19] | Plant response rating, Blackgrass [8, 20] | Blackgrass plant response rating [8, 21] | Blackgrass plant response rating [8, 22] | Plant response rating (0 to 10; 0 is no effect, 10 is complete control), Blackgrass ([8]; Rate 250 g/ha, Postemergence) | Blackgrass plant response rating [8, 23] | Velvetleaf plant response rating [9, 17] | Velvetleaf plant response rating [9, 19] | Plant response rating, Velvetleaf [9, 20] | Velvetleaf plant response rating [9, 21] | Velvetleaf plant response rating [9, 22] | Plant response rating (0 to 10; 0 is no effect, 10 is complete control), Velvetleaf ([9]; Rate 250 g/ha, Postemergence) | Rice plant response rating [10, 24] | Rice plant response rating [10, 25] | Rice plant response rating [10, 26] | Rice plant response rating [10, 27] | Plant response rating, Rice [10, 28] | S. Flatsedge plant response rating [11, 24] | S. Flatsedge plant response rating [11, 25] | S. Flatsedge plant response rating [11, 26] | S. Flatsedge plant response rating [11, 27] | S. Flatsedge plant response rating ([11]; Rate 500 g/ha, Pre-emergence, flood test species, scale 0 to 10 (0 no effect, 10 complete control)) | Soybean plant response rating [12, 17] | Soybean plant response rating (0 to 10 scale) [12, 18] | Soybean plant response rating [12, 19] | Plant response rating, Soybean [12, 20] | Soybean plant response rating [12, 21] | Soybean plant response rating [12, 22] | Plant response rating (0 to 10; 0 is no effect, 10 is complete control), Soybean ([12]; Rate 250 g/ha, Postemergence) | Soybean plant response rating [12, 23] | Cocklebur plant response rating [13, 17] | Cocklebur plant response rating (0 to 10 scale) [13, 18] | Cocklebur plant response rating [13, 19] | Plant response rating, Cocklebur [13, 20] | Cocklebur plant response rating [13, 21] | Cocklebur plant response rating [13, 22] | Plant response rating (0 to 10; 0 is no effect, 10 is complete control), Cocklebur ([13]; Rate 250 g/ha, Postemergence) | Cocklebur plant response rating [13, 23] | B. signalgrass plant response rating [14, 17] | B. signalgrass plant response rating (0 to 10 scale) [14, 18] | B. signalgrass plant response rating [14, 19] | Plant response rating, B. signalgrass [14, 20] | B. signalgrass plant response rating [14, 21] | B. signalgrass plant response rating ([14]; Rate 125 g/ha, Postemergence, scale 0 (no effect) to 10 (complete control)) | Plant response rating, B. signalgrass ([14]; Rate 250 g/ha, Postemergence, scale 0 to 10, 0 is no effect, 10 is complete control) | B. signalgrass plant response rating ([14]; Rate 500 g/ha, Postemergence, scale 0 to 10, 0 no effect, 10 complete control) | Wheat plant response rating [15, 17] | Wheat plant response rating [15, 19] | Plant response rating, Wheat [15, 20] | Wheat plant response rating [15, 21] | Wheat plant response rating [15, 22] | Plant response rating (0 to 10; 0 is no effect, 10 is complete control), Wheat ([15]; Rate 250 g/ha, Postemergence) | Nutsedge plant response rating [16, 17] | Nutsedge plant response rating (0 to 10 scale) [16, 18] | Nutsedge plant response rating [16, 19] | Plant response rating, Nutsedge [16, 20] | Nutsedge plant response rating [16, 21] | Nutsedge plant response rating [16, 22] | Plant response rating (0 to 10; 0 is no effect, 10 is complete control), Nutsedge ([16]; Rate 250 g/ha, Postemergence) | Nutsedge plant response rating [16, 23]
